Values after ≈ are worked out from the molar mass of the structure shown. Structures can show the parent of a compound that is named as a salt. Where two headings read alike, the source gives them in different places.
Key:
[1] = system: A. baumannii; experiment: Gram negative MIC protocol (OD600, LB, 24 h); details: Acinetobacter baumannii
Experimental: (§1) Overnight bacterial cultures were grown in LB with no added antibiotics at 37° C. with shaking. A 1:1000 dilution of these cultures into LB was exposed to concentration gradients of compounds in 96-well plates (100 μL per well assay volume). Resulting plates were incubated at 37° C. for 24 h without shaking, and OD600 was measured at the end of the incubation. MICs were determined as the lowest concentrations at which OD600 remained at baseline.

[2] = system: H37RvMA; experiment: Tuberculosis Alamar Blue/Resazurin assay (MIC); format: cell-based; details: Mycobacterium tuberculosis, H37RV, read-out: WT H37Rv MTB Activity
[3] = system: E. coli; experiment: Gram negative MIC protocol (OD600, LB, 24 h); details: Escherichia coli
Experimental: as §1

[4] = read-out: MIC A. baumannii LB Media, A. baumannii, LB media, 24 h, OD600
[5] = read-out: MIC E. coli delta-TolC LB Media, E. coli delta-TolC strain, LB media, 24 h, OD600
[6] = read-out: MIC WT E. coli LB Media, wild-type E. coli, LB media, 24 h, OD600
[7] = read-out: MIC E. coli delta-TolC LB Media, E. coli delta-TolC, LB media, OD600
[8] = read-out: MIC WT E. coli LB Media, WT E. coli, LB media, OD600
[9] = read-out: MIC A. baumannii LB Media

Compound	MIC [1, 4]	MIC ([2]; WT H37Rv MTB)	MIC [3, 5]	MIC [3, 6]	MIC [3, 7]	MIC [3, 8]	MIC [1, 9]	MIC [2]
COc1cccc2c1B(O)OC2CNCc1ccccc1 (stereo not shown) [B220, 3-((benzylamino)methyl)-7-methoxybenzo[c][1,2]oxaborol-1(3H)-ol hydrochloride]	> 300 µM	> 150 µM	> 300 µM	> 300 µM				
CCCC(C)NCc1ccccc1 (stereo not shown) [B16]	> 150 µM	> 150 µM			> 150 µM	> 150 µM		
CC1CCCCC1CCNCc1ccccc1 (stereo not shown) [B178]	> 300 µM	55 µM (≈ 12.7 µg/mL)			> 300 µM	> 300 µM		
CNC(=O)COc1ccccc1CNC(C)CC1CCCCC1 (stereo not shown) [B243]	> 150 µM	> 150 µM	12 µM (≈ 3.82 µg/mL)	> 150 µM				
CC(CC1CCC1)NCc1ccccc1 (stereo not shown) [B33]					> 150 µM	> 150 µM	> 150 µM	> 150 µM
O=C(O)C1CCCCC1CCNCc1ccccc1 (stereo not shown) [B184]	> 300 µM	> 150 µM			> 300 µM	> 300 µM		
C=CCOc1ccccc1CNC(C)CC1CCCCC1 (stereo not shown) [B289]	150 µM (≈ 43.1 µg/mL)	150 µM (≈ 43.1 µg/mL)	3 µM (≈ 0.862 µg/mL)	91 µM (≈ 26.2 µg/mL)				
c1ccc(CNCCN2CCc3sccc3C2)cc1 [B140]	> 150 µM	> 150 µM			> 150 µM	> 150 µM		
O=C1Cc2ccccc2CN1CCCC1CCCCC1 [B416, 2-(3-cyclohexylpropyl)-1,4-dihydroisoquinolin-3(2H)-one]	> 150 µM	2.5 µM (≈ 0.679 µg/mL)			55 µM (≈ 14.9 µg/mL)	> 150 µM		
CC(CC1CCCCC1)NCc1ccccc1CS(=O)(=O)N[C@H](C)C(=O)O (stereo partly drawn) [B455, ((2-(((1-cyclohexylpropan-2-yl)amino)methyl)benzyl)sulfonyl)-D-alanine]	> 150 µM	> 150 µM			91 µM (≈ 36.1 µg/mL)	> 150 µM		
CC(NCc1ccccc1)C(C)C1CCCCC1 (stereo not shown) [B89]	> 150 µM	91 µM (≈ 22.3 µg/mL)			> 150 µM	300 µM (≈ 73.6 µg/mL)		
CN1CCC(CNCc2ccccc2)c2ccccc21 (stereo not shown) [B139]	> 150 µM	> 150 µM			> 150 µM	> 150 µM		
C[C@@H](Cc1ccccc1)NCc1ccccc1 [B217]			> 300 µM	> 300 µM			> 300 µM	> 150 µM
Brc1ccc(CC2(NCc3ccccc3)CC2)cc1 [B91]	> 150 µM				90 µM (≈ 28.5 µg/mL)	> 150 µM		> 150 µM
O=C1Cc2ccccc2CN1CCC1CCSCC1 [B410, 2-(2-(tetrahydro-2H-thiopyran-4-yl)ethyl)-1,4-dihydroisoquinolin-3(2H)-one]	> 150 µM	> 150 µM			> 150 µM	> 150 µM		
CC(CC1CCCCC1)NCc1ccccc1OC1CC2CCC1(C)C2(C)C (stereo not shown) [B326]	> 150 µM	55 µM (≈ 21.1 µg/mL)	12 µM (≈ 4.6 µg/mL)	> 150 µM				
c1ccc(CNCCC2CCCNC2)cc1 (stereo not shown) [B224]	> 300 µM	> 150 µM	> 150 µM	> 300 µM				
Clc1cc(CCNCc2ccccc2)cc2c1OCCO2 [B55]					> 150 µM	> 150 µM	> 150 µM	150 µM (≈ 45.6 µg/mL)
CC(CC1CCCCC1)N1Cc2ccccc2OC1=O (stereo not shown) [B426, 3-(1-cyclohexylpropan-2-yl)-3,4-dihydro-2H-benzo[e][1,3]oxazin-2-one]	> 150 µM	1.7 µM (≈ 0.465 µg/mL)			55 µM (≈ 15 µg/mL)	> 150 µM		
CC(CC1CCCCC1)NCc1ccccc1CS(=O)(=O)N[C@@H](C)C(=O)O (stereo partly drawn) [B454, ((2-(((1-cyclohexylpropan-2-yl)amino)methyl)benzyl)sulfonyl)-L-alanine]	> 150 µM	> 150 µM			91 µM (≈ 36.1 µg/mL)	> 150 µM		
CC(CC1CCCCC1)NCc1ccccc1OC(F)(F)F (stereo not shown) [B321]	> 150 µM	> 150 µM	55 µM (≈ 17.3 µg/mL)	> 150 µM				

Compound	MIC [1, 4]	MIC ([2]; WT H37Rv MTB)	MIC [3, 5]	MIC [3, 6]	MIC [3, 7]	MIC [3, 8]	MIC [1, 9]	MIC [2]
Cc1nc(COc2ccccc2CNC(C)CC2CCCCC2)no1 (stereo not shown) [B334]	> 150 µM	> 150 µM	7 µM (≈ 2.4 µg/mL)	> 150 µM				
Cc1noc(C)c1CC(C)NCc1ccccc1 (stereo not shown) [B26]	> 150 µM				> 150 µM	> 150 µM		> 150 µM
COc1ccc(CC(C)NCc2ccccc2)c2ccccc12 (stereo not shown) [B201]	170 µM (≈ 51.9 µg/mL)		96 µM (≈ 29.3 µg/mL)	> 300 µM				91 µM (≈ 27.8 µg/mL)
c1cc(CNCCC2CCCCC2)c2sccc2c1 [B354]	> 150 µM	150 µM (≈ 41 µg/mL)	150 µM (≈ 41 µg/mL)	> 150 µM				
CC(CC1CCCCC1)NCc1ccccc1OCCOC1CCCC1 (stereo not shown) [B260]	> 150 µM	91 µM (≈ 32.7 µg/mL)	7 µM (≈ 2.52 µg/mL)	> 150 µM				
CC(CC1CCCCC1)NCc1ccccc1OCc1cn(C)nn1 (stereo not shown) [B300]	> 150 µM	> 150 µM	12 µM (≈ 4.11 µg/mL)	> 150 µM				
CC(CC1CCCCC1)NCc1ccccc1OCc1cscn1 (stereo not shown) [B292]	> 150 µM	150 µM (≈ 51.7 µg/mL)	4 µM (≈ 1.38 µg/mL)	> 150 µM				
CC(CC1CCCCC1)NCc1ccccc1OCc1ccccc1I (stereo not shown) [B388, 1-cyclohexyl-N-(2-((2-iodobenzyl)oxy)benzyl)propan-2-amine]	33 µM (≈ 15.3 µg/mL)	33.4 µM (≈ 15.5 µg/mL)	7 µM (≈ 3.24 µg/mL)	150 µM (≈ 69.5 µg/mL)				
Fc1ccc(CNCCC2=CCCCC2)cc1 [B14]	> 150 µM	> 150 µM			> 150 µM	> 150 µM		
c1ccc(-c2ccc3ccccc3c2)c(CNCCC2CCCCC2)c1 [B234, 2-cyclohexyl-N-(2-(naphthalen-2-yl)benzyl)ethanamine hydrochloride]	31 µM	55 µM	10 µM	> 300 µM				
O=C1CCC(CCNCc2ccccc2)CC1 [B218, 4-(2-(benzylamino)ethyl) cyclohexanone]	> 300 µM	> 150 µM	> 300 µM	> 300 µM				
Cc1cc(COc2ccccc2CNC(C)CC2CCCCC2)no1 (stereo not shown) [B282]	> 150 µM	150 µM (≈ 51.4 µg/mL)	3 µM (≈ 1.03 µg/mL)	> 150 µM				
c1coc(-c2ccccc2CNCCC2CCCCC2)c1 [B236, 2-cyclohexyl-N-(2-(furan-2-yl)benzyl)ethanamine hydrochloride]	300 µM	150 µM	17 µM	54 µM				
OCc1ccccc1CNCCC1CCCCC1 [B255]	> 150 µM	> 150 µM	84 µM (≈ 20.8 µg/mL)	> 150 µM				
CC(Cc1ccn(C(C)C)n1)NCc1ccccc1 (stereo not shown) [B47]	> 150 µM				> 150 µM	> 150 µM		> 150 µM
CC(CC1CCCCC1)NCc1ccccc1OCC(=O)N(C)Cc1ccco1 (stereo not shown) [B318]	> 150 µM	150 µM (≈ 59.8 µg/mL)	7 µM (≈ 2.79 µg/mL)	> 150 µM				
O=C1Cc2ccccc2CN1CCC1CCCC1 [B427, 2-(2-cyclopentylethyl)-1,4-dihydroisoquinolin-3(2H)-one]	> 150 µM	2.7 µM (≈ 0.657 µg/mL)			> 150 µM	> 150 µM		
c1ccc(CNC2(C3CC3)CC2)cc1 [B32]	> 150 µM	> 150 µM			> 150 µM	> 150 µM		
COc1cc(CC(C)NCc2ccccc2)ncn1 (stereo not shown) [B84]	> 150 µM				> 150 µM	> 150 µM		> 150 µM
c1ccc(CNCCC2CCSCC2)cc1 [B332]	> 150 µM		> 150 µM	> 150 µM				
O=C1Cc2ccccc2CN1CCC1CCCCC1 [B379]	> 150 µM		150 µM (≈ 38.6 µg/mL)	> 150 µM				
